According to patent publication US20070004721A1, “Pteridine derivatives for the treatment of septic shock and tnf-a-related diseases” (priority 2003, published 2007):

Tests used:
human IL-1β = experiment: IL-1β assay: suppression of IL-1β production by LPS-stimulated PBMC (sandwich ELISA); assay type: cell-based; conditions: LPS 1 μg/ml, 72 hours at 37° C.
Protocol: (§1) Peripheral blood mononuclear cells (herein referred as PBMC), in response to stimulation by lipopolysaccharide (LPS), a gram-negative bacterial endotoxin, produce various […], in particular human TNF-α and IL-1β. The inhibition of the activation of PBMC can be measured by the level of suppression of the production of TNF-α or IL-1β by PBMC in response to stimulation by LPS.
(§2) Such inhibition measurement was performed as follows: PBMC were isolated from heparinized peripheral blood (Buffy coat) by density gradient centrifugation. LPS is then added to the PMBC suspension in complete medium (10^6 cells/ml) at a final concentration of 1 μg/ml. The pteridine derivative to be tested was added at different dilution levels, and the cells were incubated at 37° C. for 72 hours. The supernatants were collected, and TNF-α or IL-1β concentrations were measured with respectively an anti-TNF antibody or an anti-IL-1β antibody in a sandwich ELISA (Duo Set ELISA human TNFα, commercially available from R&D Systems, United Kingdom). The colorimetric reading of the ELISA was measured by a Multiskan RC plate reader (commercially available from ThermoLabsystems, Finland) at 450 nm (reference wavelength: 690 nm). Data analysis was performed with Ascent software 2.6. (also from ThermoLabsystems, Finland): a standard curve (recombinant human TNFα) was drawn and the amount (pg/ml) of each sample on the standard curve was determined.
(§3) The % inhibition of human TNF-α production or human IL-1β was calculated using the formula: % inhibition=[…] wherein: min.: pg/ml in culture medium without test compound, and
(§4) max.: pg/ml in culture medium+LPS without test compound.

C57BL/6 male mice = experiment: Protection against a lethal dose of TNF-α (TNF-α induced shock); assay type: in vivo; conditions: for Animals surviving 48 hours after TNF-α administration: TNF-α 10 μg i.v., 20 mg/kg/day i.p. three injections, total animals 9, 6, 6
Protocol: A model of TNF-α induced shock in C57BL/6 male mice was performed as follows. Animals from the control group received an Intravenous administration of a lethal dose of TNF-α (10 μg) in the tail. Animals from the test group received three intraperitoneous injections of a pteridine derivative (20 mg/kg/day) respectively 48 hours, 24 hours and immediately before an intravenous injection of TNF-α (10 μg).

C3H mice = experiment: Protection against lethal toxic shock (LPS injection); assay type: in vivo
[1] = tested on: melanoma (B16BL/6) in C57BL6 (B6) mice; experiment: Reduction of tumor growth while inhibiting TNF-α toxicity, melanoma tumor model; assay type: in vivo
Protocol: A tumor model of melanoma (B16BL/6) in C57BL6 (B6) mice was performed as follows. On day 1, a group of 18 B6 mice were injected with 1.5×10^6 B16BL/6 melanosarcoma cells. The group was further divided into the following subgroups 3 days after the tumor cells injection: • a first control sub-group of 6 mice received vehicle (physiological solution) 3 times a week starting on day 3; • a second control subgroup of 5 mice received TNF-α (15 μg) on day 5 and, for surviving animals, TNF-α was again administered 3 times a week for 2 weeks; • a test sub-group of 7 mice intraperitoneously received the pteridine derivative of example 24 at a dose of 20 mg/kg on each of days 3, 4 and 5; the latter third injection on day 5 occurred 2 hours before a first TNF-α intravenous injection (15 μg). Then the test compound (20 mg/kg/day) and TNF-α (15 μg/day) were administered each subcutaneously 3 times a week for 2 weeks.

human TNF-α = experiment: TNF-α assay: suppression of TNF-α production by LPS-stimulated PBMC (sandwich ELISA); assay type: cell-based; conditions: LPS 1 μg/ml, 72 hours at 37° C.
Protocol: as §1, §2, §3, §4

[2] = group of 16 C3H mice, 100 μg LPS i.p., 20 mg/kg/day i.p. for 2 days

SMILES	IC50 (human TNF-α)	other results
COc1ccc(-c2cnc3nc(N)nc(N4CCOCC4)c3n2)cc1OC [Example 24, 2-amino-4-morpholino-6-(3,4-dimethoxyphenyl)pteridine]		IC50 (human IL-1β; Homo sapiens): 5.5 µM; Animals surviving 48 hours after TNF-α administration (C57BL/6 male mice): 7; body temperature (C57BL/6 male mice; followed for 48 hours after TNF-α 10 μg i.v., 20 mg/kg/day i.p. 48 h, 24 h and immediately before, control 28.2° C.): 30.1 °C; animals permanently survived the challenge of a LPS lethal dose (C3H mice; [2]): 14; animals showing a significantly prolonged survival (C3H mice; [2]): 2; prolonged survival (C3H mice; the 2 animals that did not survive permanently, controls die within 1-3 days): 5 days; average tumor size (largest diameter multiplied by smallest diameter) ([1]; after two weeks treatment together with TNF-α, first control group 439 mm^2): 144 mm^2; animals of the test sub-group survived ([1]; out of 7 tumor bearing mice, 20 mg/kg plus TNF-α 15 μg, second control group all died): 5
CC(C)Oc1nc(N)nc(N)c1N [Example 59, 2,5,6-triamino-4-isopropoxy-pyrimidine]	8 µM	
CC(C)Oc1nc(N)nc2ncc(Cl)nc12 [Example 65, 2-amino-6-chloro-4-isopropoxypteridine]	9.1 µM	
CCOc1nc(N)nc2ncc(-c3ccccc3OC)nc12 [Example 67, 2-amino-6-(o-methoxyphenyl)-4-ethoxy-pteridine]	10 µM	
CCOc1nc(N)nc2ncc(-c3cccc(OC)c3)nc12 [Example 68, 2-amino-6-(m-methoxyphenyl)-4-ethoxy-pteridine]	10 µM	
CCOc1nc(N)nc2ncc(-c3cccs3)nc12 [Example 72, 2-amino-6-(2-thienyl)-4-ethoxy-pteridine]	8.5 µM	
CCOc1nc(N)nc2ncc(-c3ccc(F)cc3)nc12 [Example 77, 2-amino-6-(p-fluorophenyl)-4-ethoxy-pteridine]	8.1 µM	
CCOc1nc(N)nc2ncc(-c3ccc(F)c(C)c3)nc12 [Example 80, 2-amino-6-(3-methyl-4-fluorophenyl)-4-ethoxy-pteridine]	6.8 µM	
CCOc1nc(N)nc2ncc(-c3ccc(OC)c(OC)c3)nc12 [Example 83, 2-amino-6-(3,4-dimethoxyphenyl)-4-ethoxy-pteridine]	6.6 µM	
Cc1ccc(-c2cnc3nc(N)nc(OC(C)C)c3n2)cc1C [Example 85, 2-amino-6-(3,4-dimethylphenyl)-4-isopropoxypteridine]		IC50 (human IL-1β; Homo sapiens): > 40 µM
CC(C)Oc1nc(N)nc2ncc(-c3ccc(F)c(Cl)c3)nc12 [Example 87, 2-amino-6-(3-chloro-4-fluorophenyl)-4-isopropoxypteridine]	7.5 µM	
COc1ccc(-c2cnc3nc(N)nc(OC(C)C)c3n2)cc1OC [Example 98, 2-amino-6-(3,4-dimethoxyphenyl)-4-isopropoxypteridine]	3.5 µM	IC50 (human IL-1β; Homo sapiens): > 40 µM; Animals surviving 48 hours after TNF-α administration (C57BL/6 male mice): 3
COc1ccc(-c2cnc3nc(N)nc(N4CC=CCC4)c3n2)cc1OC [Example 119, 2-amino-4-(1,2,3,6-tetrahydropyridinyl)-6-(3,4-dimethoxyphenyl)pteridine]		IC50 (human IL-1β): 15 µM; Animals surviving 48 hours after TNF-α administration (C57BL/6 male mice): 3

More lines, main results first:

IC50 (human TNF-α)	SMILES	other results
10 µM	CCOc1ccc(-c2cnc3nc(N)nc(OC(C)C)c3n2)cc1 [Example 92, 2-amino-6-(p-ethoxyphenyl)-4-isopropoxypteridine]	
7.6 µM	CC(C)Oc1nc(N)nc2ncc(-c3ccsc3)nc12 [Example 94, 2-amino-6-(3-thienyl)-4-isopropoxypteridine]	
9.1 µM	CC(=O)c1ccc(-c2cnc3nc(N)nc(OC(C)C)c3n2)cc1 [Example 97, 2-amino-6-(p-acetylphenyl)-4-isopropoxypteridine]	
10 µM	COc1ccc(-c2cnc3nc(NCc4cccs4)nc(N)c3n2)cc1OC [Example 143, 2-(2-thienylmethylamino)-4-amino-6-(3,4-dimethoxyphenyl)pteridine]	
9.3 µM	COc1ccc(-c2cnc3nc(NCc4ccccc4)nc(N)c3n2)cc1OC [Example 145, 2-benzylamino-4-amino-6-(3,4-dimethoxyphenyl)pteridine]	
4.9 µM	Nc1nc(N2CCOCC2)c2nc(-c3ccc(NC(=O)COc4ccccc4)cc3)cnc2n1 [Example 160, 2-amino-4-morpholino-6-(4-phenoxyacetylaminophenyl)pteridine]	
4.4 µM	Nc1nc(N2CCOCC2)c2nc(-c3ccc(NC(=O)c4ccncc4)cc3)cnc2n1 [Example 166, 2-amino-4-morpholino-6-(4-isonicotinoylaminophenyl)pteridine]	
4.3 µM	Nc1nc(N2CCOCC2)c2nc(-c3cccc(NC(=O)c4ccccc4)c3)cnc2n1 [Example 171, 2-amino-4-morpholino-6-(3-benzoylaminophenyl)pteridine]	
0.5 µM	Nc1nc(N2CCOCC2)c2nc(-c3cccc(NS(=O)(=O)c4ccccc4)c3)cnc2n1 [Example 172, 2-amino-4-morpholino-6-(3-benzensulfonylaminophenyl)pteridine]	
7.3 µM	Nc1nc(N2CCOCC2)c2nc(-c3cccc(NC(=O)c4ccncc4)c3)cnc2n1 [Example 174, 2-amino-4-morpholino-6-(3-isonicotinoylaminophenyl)pteridine]	
5 µM	Nc1nc(N2CCOCC2)c2nc(-c3cccc(NC(=O)C4CCCCC4)c3)cnc2n1 [Example 175, 2-amino-4-morpholino-6-(3-cyclohexanoylaminophenyl)pteridine]	
7.7 µM	Nc1nc(N2CCOCC2)c2nc(-c3cccc(NC(=O)COCc4ccccc4)c3)cnc2n1 [Example 179, 2-amino-4-morpholino-6-(3-benzyloxyacetylaminophenyl)pteridine]	
10 µM	CCS(=O)(=O)Nc1cccc(-c2cnc3nc(N)nc(N4CCOCC4)c3n2)c1 [Example 180, 2-amino-4-morpholino-6-(3-ethylsulfonylaminophenyl)pteridine]	
10 µM	CCOc1ccc(-c2cnc3nc(N)nc(N4CCOCC4)c3n2)cc1 [Example 186, 2-amino-4-morpholino-6-(4-ethoxyphenyl)pteridine]	
10 µM	CCCOc1ccc(-c2cnc3nc(N)nc(N4CCOCC4)c3n2)cc1 [Example 190, 2-amino-4-morpholino-6-(4-propoxy-phenyl)pteridine]	
7.2 µM	COCCOc1ccc(-c2cnc3nc(N)nc(N4CCOCC4)c3n2)cc1 [Example 193, 2-amino-4-morpholino-6-(4-(2-methoxyethoxy)-phenyl)pteridine]	
